ChEMBL document CHEMBL1201862, “PubChem BioAssay data set” (2004)
Calls of active or inactive are those of the source.

What was measured:
[1] = growth suppression of PTEN-null colon cells, dose response, cell-based, HCT116 PTEN knockout (AID 1047); format: functional;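 also: HCT116 colon tumor cells with PTEN knocked out; cells exposed to compound for 60 hours before readout; potency for loss of cell viability measured by luminescence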
[2] = growth suppression of beta-catenin-knockout colon cells, dose response, cell-based, HCT116, human colon tumor (AID 1045); format: functional;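 also: HCT116 colon tumor cells with beta catenin knocked out; cells exposed to compound for 60 hours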
[3] = target: T1, High affinity choline transporter 1 (Homo sapiens, UniProt Q9GZV3); assay: CHT inhibitors, dose response, cell-based, 5-point CRC, membrane potential dye (AID 504840); format: functional
T1 sequence (Q9GZV3 whole entry): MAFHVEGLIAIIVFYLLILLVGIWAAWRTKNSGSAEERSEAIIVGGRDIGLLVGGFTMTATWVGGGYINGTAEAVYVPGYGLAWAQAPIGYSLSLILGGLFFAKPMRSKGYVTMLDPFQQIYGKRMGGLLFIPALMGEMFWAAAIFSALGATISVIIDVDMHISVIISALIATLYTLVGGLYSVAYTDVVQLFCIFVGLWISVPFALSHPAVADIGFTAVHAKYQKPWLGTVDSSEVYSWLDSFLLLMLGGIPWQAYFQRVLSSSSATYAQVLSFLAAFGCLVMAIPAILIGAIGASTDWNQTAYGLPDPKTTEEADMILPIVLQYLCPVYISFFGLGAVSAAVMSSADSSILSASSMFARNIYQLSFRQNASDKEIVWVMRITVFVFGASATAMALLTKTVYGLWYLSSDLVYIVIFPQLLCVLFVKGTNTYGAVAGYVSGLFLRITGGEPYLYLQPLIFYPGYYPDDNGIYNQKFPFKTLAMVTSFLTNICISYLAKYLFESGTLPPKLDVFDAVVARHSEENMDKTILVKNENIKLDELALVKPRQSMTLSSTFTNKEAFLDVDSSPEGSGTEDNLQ

Fatty acid synthase [4] = target: T2, Fatty acid synthase (Homo sapiens, UniProt P49327); assay: FAS thioesterase domain inhibitors, dose response, biochemical, endpoint fluorescence intensity, uHTS hits (AID 624327); format: functional;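 also: fluorescence from hydrolysis of an O-methyl fluorescein acyl ester substrate by the enzyme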
Fatty acid synthase [5] = target: T2, Fatty acid synthase; assay: FAS thioesterase domain inhibitors, dose response, biochemical, kinetic fluorescence intensity (AID 624326); format: functional;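 also: rate of fluorescence rise from hydrolysis of a fluorogenic O-methyl fluorescein ester substrate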
cells [6] = format: functional, cell-based
cells [7] = format: functional, cell-based; remark: listed apart in the source
Beta-galactosidase = Beta-galactosidase (Escherichia coli, UniProt Q8VNN2); assay: PubChem AID 485352; format: functional
[8] = target: T3, Type-1 angiotensin II receptor (Homo sapiens, UniProt P30556); assay: AT1 receptor antagonists, dose response, selectivity assay for APJ receptor antagonist project, cell-based, uHTS hits (AID 463214); format: functional;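 also: antagonist potency against angiotensin II stimulated AT1 response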
T3 sequence (P30556 whole entry): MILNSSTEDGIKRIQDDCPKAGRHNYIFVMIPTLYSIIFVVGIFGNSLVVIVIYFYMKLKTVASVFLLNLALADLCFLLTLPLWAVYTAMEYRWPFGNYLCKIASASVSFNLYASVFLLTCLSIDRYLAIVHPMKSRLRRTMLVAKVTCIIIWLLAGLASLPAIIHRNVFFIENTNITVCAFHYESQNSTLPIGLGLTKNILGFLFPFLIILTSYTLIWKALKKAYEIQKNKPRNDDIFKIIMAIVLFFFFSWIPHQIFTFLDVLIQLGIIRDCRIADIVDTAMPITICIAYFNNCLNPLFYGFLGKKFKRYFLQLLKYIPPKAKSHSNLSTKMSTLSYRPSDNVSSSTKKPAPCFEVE

[9] = target: T4, Heat shock factor protein 1 (Mus musculus, UniProt P38532); assay: inhibition of MG132-induced HSE-luciferase signal, confirmation, cell-based, NIH3T3, luminescence, dose retest (AID 2382); format: functional;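 also: NIH3T3 fibroblasts with HSF1-driven luciferase reporter stressed by proteasome inhibitor MG132; luminescence from HSF1-driven luciferase expression after 8 hours of MG132 stress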
T4 sequence (P38532 whole entry): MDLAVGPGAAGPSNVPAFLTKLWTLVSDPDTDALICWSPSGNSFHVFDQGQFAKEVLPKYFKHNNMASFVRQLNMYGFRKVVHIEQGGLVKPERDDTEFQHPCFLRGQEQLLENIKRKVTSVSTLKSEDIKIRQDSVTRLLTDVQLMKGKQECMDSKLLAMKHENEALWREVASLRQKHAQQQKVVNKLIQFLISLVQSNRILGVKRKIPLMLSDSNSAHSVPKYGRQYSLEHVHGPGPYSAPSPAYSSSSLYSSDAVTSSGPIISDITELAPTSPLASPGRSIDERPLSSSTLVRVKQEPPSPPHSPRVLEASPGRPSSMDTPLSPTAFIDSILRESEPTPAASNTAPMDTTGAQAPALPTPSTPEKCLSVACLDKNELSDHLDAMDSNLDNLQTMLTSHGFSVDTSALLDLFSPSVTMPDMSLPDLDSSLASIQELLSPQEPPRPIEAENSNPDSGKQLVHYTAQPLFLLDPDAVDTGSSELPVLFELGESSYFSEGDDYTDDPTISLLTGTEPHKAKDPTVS

[10] = target: T5, Ubiquitin-conjugating enzyme E2 N (Homo sapiens, UniProt P61088); format: functional;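 also: Dose-response confirmation in a TR-FRET assay detecting UBC13-driven polyubiquitin chain formation, inhibition measured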
T5 sequence (P61088 whole entry): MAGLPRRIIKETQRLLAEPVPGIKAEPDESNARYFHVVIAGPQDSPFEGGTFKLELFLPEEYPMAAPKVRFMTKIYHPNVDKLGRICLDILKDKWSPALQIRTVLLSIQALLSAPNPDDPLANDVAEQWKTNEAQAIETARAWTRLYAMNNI

[11] = target: Voltage-dependent T-type calcium channel subunit alpha-1H (Homo sapiens, UniProt O95180); format: functional;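 also: channel activity triggered by adding a high calcium stimulation buffer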
[12] = Luminescence Cell-Based Dose Retest to Confirm Inhibitors of Cancer Stem Cells. [Related pubchem assays (depositor defined):AID2717, AID2721]; format: functional; settings: Homo sapiens
[13] = target: T6, Calpain-2 catalytic subunit (Sus scrofa, UniProt P43367); assay: pig calpain II inhibitor potency, dose response, biochemical, fluorogenic peptide substrate (AID 1420); format: functional
T6 sequence (P43367 whole entry): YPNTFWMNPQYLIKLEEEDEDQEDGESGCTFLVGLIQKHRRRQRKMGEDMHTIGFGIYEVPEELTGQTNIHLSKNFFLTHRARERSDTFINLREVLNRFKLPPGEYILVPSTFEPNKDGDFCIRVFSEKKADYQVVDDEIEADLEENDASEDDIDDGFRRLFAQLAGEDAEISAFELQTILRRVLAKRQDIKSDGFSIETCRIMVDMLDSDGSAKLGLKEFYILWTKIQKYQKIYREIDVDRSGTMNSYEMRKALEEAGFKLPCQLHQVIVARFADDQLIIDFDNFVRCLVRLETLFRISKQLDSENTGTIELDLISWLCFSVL

[14] = inhibitors of HIV Env-driven cell fusion, dose response, cherry-pick (AID 652057); format: functional, cell-based
[15] = ZM109 Env clade C HIV-1 fusion inhibitors, dose response, HeLa effector, CEM target cells, luciferase, cherry-pick (AID 652058); format: functional, cell-based
[16] = inhibitors of clade B AD8 Env fusion, dose response, cell-based, cherry-pick (AID 652062); format: functional;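 also: luciferase signal from cell-cell fusion driven by HIV-1 clade B AD8 Env; potency is for inhibitors of fusion seen as a drop in luminescence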
[17] = target: T7, Rac GTPase-activating protein 1 (Homo sapiens, UniProt Q9H0H5); assay: MgcRacGAP GTPase-activating activity inhibitors, confirmation, biochemical, ADP Hunter fluorescence, primary and confirmatory (AID 624330); format: functional
T7 sequence (Q9H0H5 whole entry): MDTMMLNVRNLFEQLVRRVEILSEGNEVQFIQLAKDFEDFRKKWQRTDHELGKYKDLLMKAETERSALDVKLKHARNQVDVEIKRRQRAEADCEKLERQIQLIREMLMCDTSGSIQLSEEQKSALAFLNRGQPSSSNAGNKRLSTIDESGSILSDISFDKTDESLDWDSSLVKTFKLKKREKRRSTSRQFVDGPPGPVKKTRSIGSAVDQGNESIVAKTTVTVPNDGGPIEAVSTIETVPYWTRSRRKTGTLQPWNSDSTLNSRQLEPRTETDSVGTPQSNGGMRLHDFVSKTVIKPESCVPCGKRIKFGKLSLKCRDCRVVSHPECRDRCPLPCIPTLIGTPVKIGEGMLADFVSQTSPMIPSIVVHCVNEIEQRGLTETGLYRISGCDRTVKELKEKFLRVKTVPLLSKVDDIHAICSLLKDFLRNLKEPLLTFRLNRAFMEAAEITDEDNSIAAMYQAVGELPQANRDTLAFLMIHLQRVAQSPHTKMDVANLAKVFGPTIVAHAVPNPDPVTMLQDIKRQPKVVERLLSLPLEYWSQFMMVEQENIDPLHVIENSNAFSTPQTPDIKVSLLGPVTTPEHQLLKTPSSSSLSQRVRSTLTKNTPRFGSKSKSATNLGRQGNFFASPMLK

T2 sequence (P49327 whole entry, the tested form may be a part): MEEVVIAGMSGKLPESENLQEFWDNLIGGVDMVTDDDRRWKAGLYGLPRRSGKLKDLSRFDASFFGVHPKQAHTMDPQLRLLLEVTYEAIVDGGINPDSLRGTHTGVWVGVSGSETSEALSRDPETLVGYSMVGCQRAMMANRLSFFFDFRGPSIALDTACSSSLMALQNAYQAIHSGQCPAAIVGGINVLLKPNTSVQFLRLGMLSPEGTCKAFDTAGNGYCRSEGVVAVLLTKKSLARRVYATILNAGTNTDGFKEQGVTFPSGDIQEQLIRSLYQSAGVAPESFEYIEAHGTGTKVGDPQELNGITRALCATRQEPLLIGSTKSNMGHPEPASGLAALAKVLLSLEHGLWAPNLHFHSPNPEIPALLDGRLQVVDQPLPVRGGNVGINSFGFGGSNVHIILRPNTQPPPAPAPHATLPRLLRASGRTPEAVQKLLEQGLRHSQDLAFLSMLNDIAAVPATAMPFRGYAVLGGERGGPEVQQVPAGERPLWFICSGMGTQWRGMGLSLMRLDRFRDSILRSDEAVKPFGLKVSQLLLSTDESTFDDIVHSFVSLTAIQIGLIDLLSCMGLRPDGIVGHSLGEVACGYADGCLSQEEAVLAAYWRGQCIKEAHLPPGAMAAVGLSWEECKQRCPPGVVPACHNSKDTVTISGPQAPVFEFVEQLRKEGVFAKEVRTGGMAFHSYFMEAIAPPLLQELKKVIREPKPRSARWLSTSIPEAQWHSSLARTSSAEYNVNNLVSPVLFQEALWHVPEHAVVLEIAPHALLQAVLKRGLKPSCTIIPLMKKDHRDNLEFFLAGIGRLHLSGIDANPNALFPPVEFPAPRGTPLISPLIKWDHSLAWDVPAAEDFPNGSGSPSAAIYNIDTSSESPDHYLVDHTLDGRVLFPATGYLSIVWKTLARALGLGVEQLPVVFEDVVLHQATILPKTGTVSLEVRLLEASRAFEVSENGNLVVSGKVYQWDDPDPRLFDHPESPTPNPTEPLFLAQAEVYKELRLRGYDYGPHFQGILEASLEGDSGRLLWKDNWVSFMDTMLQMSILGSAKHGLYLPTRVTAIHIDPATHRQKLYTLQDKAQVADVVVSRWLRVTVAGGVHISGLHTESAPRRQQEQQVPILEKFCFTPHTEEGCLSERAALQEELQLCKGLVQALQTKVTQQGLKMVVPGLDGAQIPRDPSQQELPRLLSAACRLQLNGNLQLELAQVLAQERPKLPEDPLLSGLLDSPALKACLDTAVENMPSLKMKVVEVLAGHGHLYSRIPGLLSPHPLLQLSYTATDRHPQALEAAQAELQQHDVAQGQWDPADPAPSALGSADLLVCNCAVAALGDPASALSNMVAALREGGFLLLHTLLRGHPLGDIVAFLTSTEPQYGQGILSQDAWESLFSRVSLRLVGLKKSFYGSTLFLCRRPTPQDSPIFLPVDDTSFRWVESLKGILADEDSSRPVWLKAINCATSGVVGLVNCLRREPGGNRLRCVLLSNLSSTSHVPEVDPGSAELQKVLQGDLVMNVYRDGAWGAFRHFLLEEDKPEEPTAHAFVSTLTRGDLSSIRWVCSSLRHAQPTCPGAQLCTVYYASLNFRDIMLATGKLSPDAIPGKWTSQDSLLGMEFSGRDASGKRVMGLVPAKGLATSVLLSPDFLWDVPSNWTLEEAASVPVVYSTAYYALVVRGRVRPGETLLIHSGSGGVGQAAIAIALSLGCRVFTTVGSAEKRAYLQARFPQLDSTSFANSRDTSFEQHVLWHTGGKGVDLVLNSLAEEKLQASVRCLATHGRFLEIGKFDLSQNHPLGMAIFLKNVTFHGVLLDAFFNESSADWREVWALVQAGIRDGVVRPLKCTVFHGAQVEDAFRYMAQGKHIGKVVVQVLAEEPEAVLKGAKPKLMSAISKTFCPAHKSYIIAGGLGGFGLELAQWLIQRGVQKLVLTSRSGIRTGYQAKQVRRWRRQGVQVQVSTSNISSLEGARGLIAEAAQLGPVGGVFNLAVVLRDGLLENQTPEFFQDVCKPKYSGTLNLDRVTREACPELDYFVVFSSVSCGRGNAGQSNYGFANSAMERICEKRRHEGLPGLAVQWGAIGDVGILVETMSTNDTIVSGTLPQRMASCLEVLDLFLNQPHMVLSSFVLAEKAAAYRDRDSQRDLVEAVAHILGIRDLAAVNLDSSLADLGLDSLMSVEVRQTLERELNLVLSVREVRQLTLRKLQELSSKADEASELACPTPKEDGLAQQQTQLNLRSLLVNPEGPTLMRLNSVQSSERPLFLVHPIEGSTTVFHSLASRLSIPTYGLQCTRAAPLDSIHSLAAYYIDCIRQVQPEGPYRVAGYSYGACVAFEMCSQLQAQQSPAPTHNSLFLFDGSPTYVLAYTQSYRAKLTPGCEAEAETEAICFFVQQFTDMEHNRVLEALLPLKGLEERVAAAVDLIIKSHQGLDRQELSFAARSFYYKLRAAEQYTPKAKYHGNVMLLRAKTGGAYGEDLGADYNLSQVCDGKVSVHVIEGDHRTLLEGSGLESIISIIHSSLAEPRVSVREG
Sequence of Voltage-dependent T-type calcium channel subunit alpha-1H (O95180 whole entry): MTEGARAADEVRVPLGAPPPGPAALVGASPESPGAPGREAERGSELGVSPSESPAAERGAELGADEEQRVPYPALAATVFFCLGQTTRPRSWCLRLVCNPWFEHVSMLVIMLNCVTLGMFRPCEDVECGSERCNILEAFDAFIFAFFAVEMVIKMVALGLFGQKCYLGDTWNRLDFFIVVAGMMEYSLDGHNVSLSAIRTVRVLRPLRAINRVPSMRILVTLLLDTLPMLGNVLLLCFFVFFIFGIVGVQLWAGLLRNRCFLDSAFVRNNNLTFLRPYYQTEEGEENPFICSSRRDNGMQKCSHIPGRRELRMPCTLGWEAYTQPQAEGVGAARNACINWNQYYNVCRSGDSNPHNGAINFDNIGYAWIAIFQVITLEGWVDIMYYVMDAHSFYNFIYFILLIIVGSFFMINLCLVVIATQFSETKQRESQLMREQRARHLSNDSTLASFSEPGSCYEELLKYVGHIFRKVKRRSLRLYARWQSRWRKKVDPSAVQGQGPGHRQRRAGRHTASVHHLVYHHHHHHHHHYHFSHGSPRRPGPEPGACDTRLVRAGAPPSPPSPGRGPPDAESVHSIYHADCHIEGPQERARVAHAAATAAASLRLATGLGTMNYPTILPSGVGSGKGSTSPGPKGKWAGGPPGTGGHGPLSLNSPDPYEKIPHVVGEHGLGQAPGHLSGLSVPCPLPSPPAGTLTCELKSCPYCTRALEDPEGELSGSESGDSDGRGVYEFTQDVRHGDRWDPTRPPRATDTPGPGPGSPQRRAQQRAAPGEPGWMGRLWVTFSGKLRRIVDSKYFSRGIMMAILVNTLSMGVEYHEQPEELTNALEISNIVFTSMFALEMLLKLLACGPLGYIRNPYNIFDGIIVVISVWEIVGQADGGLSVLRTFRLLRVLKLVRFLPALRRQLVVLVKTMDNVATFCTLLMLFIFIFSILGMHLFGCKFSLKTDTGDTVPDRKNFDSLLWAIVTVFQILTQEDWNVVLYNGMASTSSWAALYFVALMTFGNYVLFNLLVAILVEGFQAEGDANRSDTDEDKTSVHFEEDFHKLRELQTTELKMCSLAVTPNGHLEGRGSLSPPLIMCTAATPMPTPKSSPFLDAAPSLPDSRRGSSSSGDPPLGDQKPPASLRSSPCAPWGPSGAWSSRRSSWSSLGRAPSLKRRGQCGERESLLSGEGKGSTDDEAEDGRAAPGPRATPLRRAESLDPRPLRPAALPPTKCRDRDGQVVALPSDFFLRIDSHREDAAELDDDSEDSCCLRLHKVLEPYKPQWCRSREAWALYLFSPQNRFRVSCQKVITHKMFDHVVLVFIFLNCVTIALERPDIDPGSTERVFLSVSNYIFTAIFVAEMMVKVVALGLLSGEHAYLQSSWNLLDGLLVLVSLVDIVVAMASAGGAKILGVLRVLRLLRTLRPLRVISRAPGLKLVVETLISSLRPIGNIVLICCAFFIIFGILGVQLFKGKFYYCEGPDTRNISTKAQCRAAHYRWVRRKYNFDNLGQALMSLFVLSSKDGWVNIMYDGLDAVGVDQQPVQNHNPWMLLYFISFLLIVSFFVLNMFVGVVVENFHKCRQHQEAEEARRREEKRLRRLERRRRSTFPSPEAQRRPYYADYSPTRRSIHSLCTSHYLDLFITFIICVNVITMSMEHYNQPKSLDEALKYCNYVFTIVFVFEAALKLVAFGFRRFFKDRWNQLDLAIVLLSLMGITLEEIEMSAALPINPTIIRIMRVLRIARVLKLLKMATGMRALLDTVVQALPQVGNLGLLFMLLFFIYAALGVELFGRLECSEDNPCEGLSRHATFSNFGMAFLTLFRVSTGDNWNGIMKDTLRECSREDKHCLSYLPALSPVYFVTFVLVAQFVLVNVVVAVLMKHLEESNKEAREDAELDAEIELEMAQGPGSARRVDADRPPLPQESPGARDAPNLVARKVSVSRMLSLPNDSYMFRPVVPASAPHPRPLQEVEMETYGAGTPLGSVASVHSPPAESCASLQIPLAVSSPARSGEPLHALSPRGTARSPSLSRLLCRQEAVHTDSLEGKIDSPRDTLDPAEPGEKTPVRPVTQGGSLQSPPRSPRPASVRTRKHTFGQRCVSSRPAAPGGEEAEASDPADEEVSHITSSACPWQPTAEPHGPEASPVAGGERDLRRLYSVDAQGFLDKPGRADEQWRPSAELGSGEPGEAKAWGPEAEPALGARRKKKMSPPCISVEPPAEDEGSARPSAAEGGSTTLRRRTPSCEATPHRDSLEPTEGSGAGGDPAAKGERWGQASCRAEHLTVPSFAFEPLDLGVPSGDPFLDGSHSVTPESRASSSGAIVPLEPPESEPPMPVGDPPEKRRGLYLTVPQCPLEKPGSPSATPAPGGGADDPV

## COc1ccc(-c2csc3nc(-c4cccnc4)nc(Cl)c23)cc1OC
[1]
  EC50: 11.5 µM (active)
[2]
  EC50: 10.4 µM (active)

## CCOC(=O)c1cccc(NC(=O)CSc2nnc(C)n2Cc2ccccc2)c1
[3]
  IC50: 0.794 µM (active)

## O=C(O)CCN(CC(=O)c1ccc(Cl)cc1)S(=O)(=O)c1ccc([N+](=O)[O-])cc1
Fatty acid synthase [4]
  IC50: 5.21 µM (active)
Fatty acid synthase [5]
  IC50: 4.83 µM (active)

## CCN1CCN(c2ccc(NC(=O)c3ccc4c(c3)nc(O)n4Cc3ccc(OC)cc3)cc2)CC1
[1]
  EC50: 34.2 µM (active)
[2]
  EC50: 32.2 µM (active)

## CCCCn1nc2cc(C(=O)NCCc3cccs3)ccc2c1OCC
[3]
  IC50: 11.8 µM (active)

## COc1ccc(N2CCN(S(=O)(=O)c3cc(-c4cc(C)no4)ccc3C(C)C)CC2)cc1
Cells [6]
  EC50: > 350 µM (not active)
Cells [7]
  EC50: > 350 µM (not active)

## COc1ccc(CC(=O)N(C)Cc2ccc(C(C)(C)C)cc2)cc1S(=O)(=O)N1CCOCC1
Fatty acid synthase [4]
  IC50: 2.25 µM (active)
Fatty acid synthase [5]
  IC50: 2.02 µM (active)

## O=C(COc1ncnc2cc([N+](=O)[O-])ccc12)N(CCc1ccccc1)Cc1ccccc1
Fatty acid synthase [4]
  IC50: 5.94 µM (active)
Fatty acid synthase [5]
  IC50: 22.2 µM (inactive)

## Cc1ccccc1N=C(S)NNc1ncc(C(F)(F)F)cc1Cl
Beta-galactosidase
  EC50: > 40 µM (inactive)
[8]
  IC50: 39.3 µM (not active)

## CCCN=C(S)N1CCCC(c2nc3ccccc3[nH]2)C1 (stereo not drawn)
Cells [6]
  EC50: > 350 µM (not active)
[9]
  EC50: > 195 µM (not active)
Cells [7]
  EC50: > 350 µM (not active)

## O=C(COC(=O)c1cc([N+](=O)[O-])ccc1Cl)NC1CCCC1
Fatty acid synthase [4]
  IC50: 0.979 µM (active)
Fatty acid synthase [5]
  IC50: 1.12 µM (active)

## COc1ccc(CCN(C)C(=O)c2ccc(COc3ccccc3)o2)cc1OC
[10]
  IC50: > 20 µM (inactive)
[3]
  IC50: 13.8 µM (active)

## COc1cc2c(cc1OC)C1(Nc3c-2c(C)nn3-c2ccccc2)C(=O)Nc2ccccc21 (stereo not drawn)
[2]
  EC50: 73.2 µM (active)

## Cc1nc(-c2ccccc2)sc1-c1nc(-c2cccnc2)ncc1S(=O)(=O)c1ccccc1
[11]
  EC50: 8.73 µM (active)

## O=C1C=C(c2ccc(Cl)c(C(F)(F)F)c2)C[C@@H](c2ccc3c(c2)OCO3)C1
[12]
  AC50: 5.04 µM (active)
Fatty acid synthase [4]
  IC50: 5.66 µM (active)
Fatty acid synthase [5]
  IC50: 5.82 µM (active)

## O=C(CSc1c[nH]c2ccccc12)NCc1ccc2c(c1)OCO2
Cells [6]
  EC50: > 350 µM (not active)
Cells [7]
  EC50: > 350 µM (not active)

## CCN(CC)S(=O)(=O)c1ccc(NC(=O)CCC2CCCCC2)cc1
[11]
  EC50: 10.3 µM (active)

## COc1cccc(CNC(=O)CSCc2cnn(-c3ccccc3)c2-n2cccc2)c1OC
[11]
  EC50: 3.32 µM (active)

## Cc1cc(NC(=O)COC(=O)C(Nc2ccc(C(F)(F)F)cc2Cl)C(C)C)no1 (stereo not drawn)
[13]
  IC50: 9.49 µM (not active)
[11]
  EC50: 3.96 µM (active)

## N=c1c2c(ncn1Cc1ccco1)Oc1c(ccc3ccccc13)C2c1ccccc1 (stereo not drawn)
[1]
  EC50: 5.53 µM (active)
[2]
  EC50: 5.92 µM (active)
[12]
  AC50: 2.25 µM (active)

## CCCOc1cccc(C2C(C(=O)c3ccco3)=C(O)C(=O)N2CCCn2ccnc2)c1 (stereo not drawn)
Cells [6]
  EC50: > 350 µM (not active)
Cells [7]
  EC50: > 350 µM (not active)

## COc1ccc2[nH]c3c(c2c1)CCN1C(=O)C(CC(=O)NCCc2ccccn2)C[C@H](C(=O)N2CCOCC2)[C@@]31CCC1CCCC1 (stereo partly drawn)
Fatty acid synthase [4]
  IC50: 7.16 µM (active)
Fatty acid synthase [5]
  IC50: 8.91 µM (active)

## CC(C)c1nc(C(=O)N2CCCC(N3CCN(c4cccc(Cl)c4)CC3)C2)cs1 (stereo not drawn)
[3]
  IC50: 13.2 µM (active)

## C[C@H](CO)N1C[C@H](C)[C@H](CN(C)S(=O)(=O)c2cccc(F)c2)Oc2cc(Br)ccc2S1(=O)=O
[14]
  AC50: 5.29 µM (active)
[15]
  AC50: 3.27 µM (active)
[16]
  AC50: 33.5 µM (active)

## Cc1ccc(NC(=O)CCC(=O)N/N=C/c2ccc(O)cc2O)cc1
Cells [6]
  EC50: > 350 µM (not active)
Cells [7]
  EC50: > 350 µM (not active)
[17]
  IC50: 56.6 µM (active)

## C[C@H](CO)N1C[C@H](C)[C@H](CN(C)Cc2ccccc2)Oc2cc(-c3ccccc3)ccc2S1(=O)=O
[14]
  AC50: 18.9 µM (active)
[15]
  AC50: 21 µM (active)
[16]
  AC50: 26.7 µM (active)

## Cn1c(=O)cc(C(=O)N/N=C/c2ccc(F)cc2)[nH]c1=O
Cells [6]
  EC50: > 350 µM (not active)
Cells [7]
  EC50: > 350 µM (not active)
